Test results from patent US7659289B2, “Hydroxyethylene-based β-secretase inhibitors and use thereof” (CoMentis, Inc., priority 2004, dated 2010).
Each block holds one compound with its values, some of them ahead of it.

Experiments:
Aβ production = test: Cellular Aβ IC50 determination (Aβ40 sandwich ELISA); format: cell-based; conditions: Cricetulus griseus; Aβ40, Chinese hamster ovary cells over-expressing human APP695 with London and Swedish mutations, 24 h incubation
Protocol: The potency of compounds against memapsin 2 activity was determined in a cellular assay of Aβ production. […] Chinese hamster ovary cells that over-express human APP695 with the London and Swedish mutations were seeded in multi-well plates at 10% confluency. Compounds were dissolved in DMSO to concentrations near 1 mM, and diluted into culture media to a final concentration near 4 μM (final 0.4% DMSO). Compounds were diluted serially and applied to cells in multi-well plates 48 h after seeding. Incubation was continued in 5% CO2 at 37 degrees C. for 24 h. Aliquots were removed and assayed for Aβ40 content using a sandwich ELISA (BioSource International). Amount of Aβ40 over the range of concentration of compounds, relative to control incubations, were fit to a 4-parameter IC50 model.

Cathepsin D = Cathepsin D (Homo sapiens, UniProt P07339); test: Inhibition of cathepsin D activity (MALDI-TOF, substrate peptide […]); format: biochemical; conditions: pH 4.1, 37 degrees C., read-out: Cath D Ki
Memapsin 1 = biological target: T1, Memapsin 1 (Homo sapiens, UniProt Q9Y5Z0); test: Inhibition of memapsin 1 beta-secretase activity (MALDI-TOF, substrate peptide […]); format: biochemical; conditions: pH 4.1, 37 degrees C., read-out: M1 Ki
T1 sequence (Q9Y5Z0 63-473 limits assumed): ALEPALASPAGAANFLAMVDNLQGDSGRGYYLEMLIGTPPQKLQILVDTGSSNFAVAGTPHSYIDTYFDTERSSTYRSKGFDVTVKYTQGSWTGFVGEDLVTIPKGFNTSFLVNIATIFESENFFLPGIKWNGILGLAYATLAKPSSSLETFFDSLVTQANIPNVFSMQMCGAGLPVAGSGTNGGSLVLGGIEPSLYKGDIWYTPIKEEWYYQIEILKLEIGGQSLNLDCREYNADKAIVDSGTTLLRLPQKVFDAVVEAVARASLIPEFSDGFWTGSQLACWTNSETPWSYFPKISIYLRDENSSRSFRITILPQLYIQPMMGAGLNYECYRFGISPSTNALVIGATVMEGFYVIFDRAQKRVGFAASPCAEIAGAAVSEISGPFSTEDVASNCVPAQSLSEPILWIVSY

memapsin 2 = memapsin 2 (Homo sapiens, UniProt P56817); test: Inhibition of memapsin 2 beta-secretase activity toward fluorogenic substrate FS-2; format: biochemical; conditions: pH 4, 37° C., 20 minutes pre-incubation, fluorogenic substrate FS-2, tight-binding model; read-out: M2 Ki
Sequence of memapsin 2 (P56817 46-501): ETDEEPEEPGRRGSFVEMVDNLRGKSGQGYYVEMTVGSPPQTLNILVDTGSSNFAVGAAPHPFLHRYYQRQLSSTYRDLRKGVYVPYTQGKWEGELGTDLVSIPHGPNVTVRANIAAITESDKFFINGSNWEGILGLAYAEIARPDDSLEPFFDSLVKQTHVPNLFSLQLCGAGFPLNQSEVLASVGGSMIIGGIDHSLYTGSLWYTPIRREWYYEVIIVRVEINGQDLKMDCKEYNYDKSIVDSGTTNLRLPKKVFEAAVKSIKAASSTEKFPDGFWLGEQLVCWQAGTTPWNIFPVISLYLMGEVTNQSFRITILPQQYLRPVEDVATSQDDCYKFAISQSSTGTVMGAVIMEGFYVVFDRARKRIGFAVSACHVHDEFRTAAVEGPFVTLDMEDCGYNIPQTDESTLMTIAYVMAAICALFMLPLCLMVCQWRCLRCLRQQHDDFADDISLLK

Sequence of Cathepsin D (P07339 65-412, species assumed): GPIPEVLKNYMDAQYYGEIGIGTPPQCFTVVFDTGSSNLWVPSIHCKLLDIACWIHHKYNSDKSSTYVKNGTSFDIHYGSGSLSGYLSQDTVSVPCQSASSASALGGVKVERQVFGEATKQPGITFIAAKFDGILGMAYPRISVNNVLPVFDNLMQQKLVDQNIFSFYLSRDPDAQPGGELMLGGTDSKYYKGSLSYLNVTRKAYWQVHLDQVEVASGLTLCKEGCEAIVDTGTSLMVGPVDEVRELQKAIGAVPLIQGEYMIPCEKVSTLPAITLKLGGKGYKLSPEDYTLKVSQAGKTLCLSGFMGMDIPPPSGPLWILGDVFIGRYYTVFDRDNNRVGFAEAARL

SMILES: Cc1csc(COC(=O)N[C@@H](CNS(C)(=O)=O)C(=O)N[C@@H](CC(C)C)[C@@H](O)C[C@@H](C)C(=O)N[C@H](C(=O)NCC(C)C)C(C)C)n1
- IC50 (Aβ production): > 100 µM
- Ki (Cathepsin D): 0.1 to 0.6 µM
- Ki (Memapsin 1): 0.1 to 0.6 µM
- Ki (memapsin 2): < 0.1 µM

SMILES: Cc1csc(COC(=O)N[C@@H](CNC(=O)OC(C)(C)C)C(=O)N[C@@H](CC(C)C)[C@@H](O)C[C@@H](C)C(=O)N[C@H](C(=O)NCC(C)C)C(C)C)n1
- IC50 (Aβ production): > 100 µM
- Ki (Cathepsin D): 0.1 to 0.6 µM
- Ki (Memapsin 1): 0.1 to 0.6 µM
- Ki (memapsin 2): 0.1 to 0.6 µM

SMILES: COC(=O)NC[C@H](NC(=O)OCc1nc(C)cs1)C(=O)N[C@@H](CC(C)C)[C@@H](O)C[C@@H](C)C(=O)N[C@H](C(=O)NCC(C)C)C(C)C
- IC50 (Aβ production): < 6 µM
- Ki (Cathepsin D): < 0.1 µM
- Ki (Memapsin 1): < 0.1 µM
- Ki (memapsin 2): < 0.1 µM

SMILES: Cc1csc(COC(=O)N[C@@H](CNC(=O)O[C@H]2CCOC2)C(=O)N[C@@H](CC(C)C)[C@@H](O)C[C@@H](C)C(=O)N[C@H](C(=O)NCC(C)C)C(C)C)n1
- IC50 (Aβ production): 6 to 100 µM
- Ki (Cathepsin D): 0.1 to 0.6 µM
- Ki (Memapsin 1): 0.1 to 0.6 µM
- Ki (memapsin 2): 0.1 to 0.6 µM

SMILES: Cc1csc(CNC(=O)C[C@@H](NC(=O)OC(C)(C)C)C(=O)N[C@@H](CC(C)C)[C@@H](O)C[C@@H](C)C(=O)N[C@H](C(=O)NCC(C)C)C(C)C)n1 [tert-butyl (5R,8S,9S,11 R,14S)-9-hydroxy-8-isobutyl-14-isopropyl-11,18-dimethyl-1-(4-methylthiazol-2-yl)-3,6,12,15-tetraoxo-2,7,13,16-tetraazanonadecan-5-ylcarbamate]
- Ki (Memapsin 1): 0.1 to 0.6 µM
- Ki (memapsin 2): < 0.1 µM

SMILES: Cc1csc(CNC(=O)C[C@H](NC(=O)OC(C)(C)C)C(=O)N[C@@H](CC(C)C)[C@@H](O)C[C@@H](C)C(=O)N[C@H](C(=O)NCC(C)C)C(C)C)n1 [tert-butyl (5S,8S,9S,11R,14S)-9-hydroxy-8-isobutyl-14-isopropyl-11,18-dimethyl-1-(4-methylthiazol-2-yl)-3,6,12,15-tetraoxo-2,7,13,16-tetraazanonadecan-5-ylcarbamate]
- Ki (Memapsin 1): > 0.6 µM
- Ki (memapsin 2): 0.1 to 0.6 µM

More lines, now with the values ahead:

- IC50 (Aβ production): < 6 µM
- Ki (Cathepsin D): < 0.1 µM
- Ki (memapsin 2): < 0.1 µM
SMILES: Cc1nc(C[C@H](C)C(=O)N[C@@H](CNC(=O)OC(C)(C)C)C(=O)N[C@@H](CC(C)C)[C@@H](O)C[C@@H](C)C(=O)N[C@H](C(=O)NCC(C)C)C(C)C)c(C)o1 [tert-butyl (S)-2-((S)-3-(2,5-dimethyloxazol-4-yl)-2-methylpropanamido)-3-((4S,5S,7R)-5-hydroxy-8-((S)-1-(isobutylamino)-3-methyl-1-oxobutan-2-ylamino)-2,7-dimethyl-8-oxooctan-4-ylamino)-3-oxopropylcarbamate]

- IC50 (Aβ production): < 6 µM
- Ki (Cathepsin D): 0.1 to 0.6 µM
- Ki (memapsin 2): < 0.1 µM
SMILES: Cc1csc(C[C@H](C)C(=O)N[C@@H](CNC(=O)OC(C)(C)C)C(=O)N[C@@H](CC(C)C)[C@@H](O)C[C@@H](C)C(=O)N[C@H](C(=O)NCc2ccncc2)C(C)C)n1 [tert-butyl (S)-3-(4S,5S,7R)-hydromxy-2,7-dimethyl-8-((S)-3-methyl-1-oxo-1-(pyridin-4-ylmethylamino)butan-2-ylamino)-8-oxooctan-4-ylamino)-2-((S)-2-methyl-3-(4-methylthiazol-2-yl)propanamido)-3-oxopropylcarbamate]

- IC50 (Aβ production): 6 to 100 µM
- Ki (Cathepsin D): < 0.1 µM
- Ki (memapsin 2): < 0.1 µM
SMILES: Cc1csc(C[C@H](C)C(=O)N[C@@H](CNC(=O)OC(C)(C)C)C(=O)N[C@@H](Cc2ccccc2)[C@@H](O)C[C@@H](C)C(=O)N[C@H](C(=O)NCC(C)C)C(C)C)n1 [tert-butyl (S)-3-((2S,3S,5 R)-3-hydroxy-6-((S)-1-(isobutylamino)-3-methyl-1-oxobutan-2-ylamino)-5-methyl-6-oxo-1-phenylhexan-2-ylamino)-2-((S)-2-methyl-3-(4-methylthiazol-2-yl)propanamido)-3-oxopropylcarbamate]

- IC50 (Aβ production): < 6 µM
- Ki (Cathepsin D): < 0.1 µM
- Ki (memapsin 2): < 0.1 µM
SMILES: CC[C@H](C[C@H](O)[C@H](CC(C)C)NC(=O)[C@H](CNC(=O)OC(C)(C)C)NC(=O)[C@@H](C)Cc1nc(C)cs1)C(=O)N[C@H](C(=O)NCC(C)C)C(C)C [tert-butyl (S)-3-((4S,5S,7R)-5-hydroxy-7-((S)-1-(isobutylamino)-3-methyl-1-oxobutan-2-ylcarbamoyl)-2-methylnonan-4-ylamino)-2-((S)-2-methyl-3-(4-methylthiazol-2-yl)propanamido)-3-oxopropylcarbamate]

- IC50 (Aβ production): < 6 µM
- Ki (Cathepsin D): < 0.1 µM
- Ki (memapsin 2): < 0.1 µM
SMILES: CC[C@@H](Cc1nc(C)cs1)C(=O)N[C@@H](CNC(=O)OC(C)(C)C)C(=O)N[C@@H](CC(C)C)[C@@H](O)C[C@@H](C)C(=O)N[C@H](C(=O)NCC(C)C)C(C)C [tert-butyl (S)-3-((4S,5S,7R)-5-hydroxy-8-((S)-1-(isobutylamino)-3-methyl-1-oxobutan-2-ylamino)-2,7-dimethyl-8-oxooctan-4-ylamino)-2-((S)-2-((4-methylthiazol-2-yl)methyl)butanamido)-3-oxopropylcarbamate]

- IC50 (Aβ production): < 6 µM
- Ki (Cathepsin D): < 0.1 µM
- Ki (Memapsin 1): 0.1 to 0.6 µM
- Ki (memapsin 2): < 0.1 µM
SMILES: Cc1csc(C[C@H](C)C(=O)N[C@@H](CNC(=O)OC(C)(C)C)C(=O)N[C@@H](CC(C)C)[C@@H](O)C[C@@H](C)C(=O)N[C@H](C(=O)NCC(C)C)C(C)C)n1 [tert-butyl (S)-3-((4S,5S,7R)-5-hydroxy-8-((S)-1-(isobutylamino)-3-methyl-1-oxobutan-2-ylamino)-2,7-dimethyl-8-oxooctan-4-ylamino)-2-((S)-2-methyl-3-(4-methylthiazol-2-yl)propanamido)-3-oxopropylcarbamate]

- IC50 (Aβ production): < 6 µM
- Ki (Cathepsin D): 0.1 to 0.6 µM
- Ki (memapsin 2): < 0.1 µM
SMILES: Cc1csc(C[C@H](C)C(=O)N[C@@H](CNC(=O)OC(C)(C)C)C(=O)N[C@@H](CC(C)C)[C@@H](O)C[C@@H](C)C(=O)N[C@H](C(=O)NN(C)C)C(C)C)n1 [tert-butyl (S)-3-((4S,5S,7R)-8-((S)-1-(2,2-dimethylhydrazinyl)-3-methyl-1-oxobutan-2-ylamino)-5-hydroxy-2,7-dimethyl-8-oxooctan-4-ylamino)-2-((S)-2-methyl-3-(4-methylthiazol-2-yl)propanamido)-3-oxopropylcarbamate]
